We go through five compounds from PMC11048244, “Development of Improved Spectrophotometric Assays for Biocatalytic Silyl Ether Hydrolysis” (Biomolecules, 2024).

The subject of the assay is T1, TF-Silα-Strep (silicatein-α, Silα).
T1 construct: trigger factor fused at N-terminus, Strep-tag II at C-terminus; recombinant, StrepTrap purified
Put plainly: UV-VIS spectrophotometric silyl ether hydrolysis, net initial rates. Type of assay: biochemical. The note with it: 10% v/v 1,4-dioxane, 50 mM Tris, 100 mM NaCl, pH 8.5. The text has this: UV-VIS spectrophotometric silyl ether hydrolysis, net initial rates on TF-Silα-Strep (silicatein-α, Silα)
Take `CC(C)(C)[Si](C)(C)Oc1ccc([N+](=O)[O-])cc1` [compound 1, tert-butyldimethyl(4-nitrophenoxy)silane]: the Km (usually the substrate concentration at which the rate is half of its maximum) was found to be 44.4 ± 11.9 µM.
As for `CC(C)C(C)(C)[Si](C)(C)Oc1ccc([N+](=O)[O-])cc1` [compound 2, 2], the figure is 24.1 ± 5 µM; as for `CC(C)[Si](Oc1ccc([N+](=O)[O-])cc1)(C(C)C)C(C)C` [compound 3, 3], 20.4 ± 8.13 µM; as for `Cc1cc([N+](=O)[O-])ccc1O[Si](C)(C)C(C)(C)C` [compound 4, tert-Butyldimethyl(2-methyl-4-nitrophenoxy)silane], 72.5 ± 15.3 µM.
As for `Cc1cc(O[Si](C)(C)C(C)(C)C)ccc1[N+](=O)[O-]` [compound 5, tert-Butyldimethyl(3-methyl-4-nitrophenoxy)silane], the figure is 34.6 ± 4.11 µM.
